How the values were obtained:
[1] = target: T1, hNav1.7 (Homo sapiens (Human), UniProt Q15858); test: Tritiated aryl sulfonamide binding to membranes from cells expressing hNav1.7 and the β1 subunit (competitive binding); settings: membranes with hNav1.7 and β1 subunit; [3H]compound displacement, 18 h, room temperature; read-out: NaV1.7 395 Memb Binding (IC50)
Description: Tritiated Aryl Sulfonamide Binding to Membranes Isolated from Cells that Heterologously Express hNav1.7 and the β1 Subunit
Preparation of membranes containing recombinantly expressed sodium channels: Frozen recombinant cell pellets were thawed on ice and diluted to 4 times the cell pellet weight with ice cold 50 mM Tris HCl, pH 7.4 buffer. The cell suspensions were homogenized on ice using a motorized glass dounce homogeniser. Homogenates were further diluted 8.4 times with ice cold 50 mM Tris HCl, pH 7.4 buffer and then centrifuged at 200×g at 4° C. for 15 min. The supernatants were collected and centrifuged at 10000×g at 4° C. for 50 min. The pellets were then re-suspended in 100 mM NaCl, 20 mM Tris HCl, pH 7.4 buffer containing 1% v/v protease inhibitors (Calbiochem) and re-homogenized on ice. The homogenized membranes were then processed through a syringe equipped with a 26 gauge needle. Protein concentrations were determined by Bradford Assay and the membranes were stored at −80° C.
Radioligand Binding Studies: Saturation experiments. A representative compound of formula (I) was tritiated. Three tritiums were incorporated in place of methyl hydrogens to generate [^3H]compound. Binding of this radioligand was preformed in 5 mL borosilicate glass test tubes at room temperature. Binding was initiated by adding membranes to increasing concentrations of [^3H]compound in 100 mM NaCl, 20 mM Tris HCl, pH 7.4 buffer containing 0.01% w/v bovine serum albumin (BSA) for 18 h. Non-specific binding was determined in the presence of 1 μM unlabelled compound. After 18 h, the reactants were filtered through GF/C glass fiber filters presoaked in 0.5% w/v polyethylene imine. […] [^3H]compound bound to filters was quantified by liquid scintillation counting.
Competitive binding experiments. Binding reactions were preformed in 96-well polypropylene plates at room temperature for 18 h. In 360 μL, membranes were incubated with 100 μM [^3H]compound and increasing concentrations of Test Compound. Non-specific binding was defined in the presence of 1 μM unlabelled compound. Reactions were transferred and filtered through 96-well glass fiber/C filter plates presoaked with 0.5% polyethylene imine. The filtered reactions were washed 5 times with 200 L ice cold buffer containing 0.25% BSA. Bound radioactivity was determined by liquid scintillation counting.
Data Analysis: For saturation experiments, non-specific binding was subtracted from total binding to provide specific binding and these values were recalculated in terms of pmol ligand bound per mg protein. Saturation curves were constructed and dissociation constants were calculated using the single site ligand binding model: Beq=(Bmax*X)/(X+Kd), where Beq is the amount of ligand bound at equilibrium, Bmax is the maximum receptor density, Kd is the dissociation constant for the ligand, and X is the free ligand concentration.

[2] = target: T1, hNav1.7; test: Patch voltage clamp electrophysiology (PatchXpress), HEK-293 cells, inactivated state block; assay type: cell-based; settings: HEK-293 cells, β1 coexpressed; inactivated state, holding −60 mV; read-out: EP_PX 293 hNav1.7 (IC50)

T1 sequence (Q15858 whole entry, looked up): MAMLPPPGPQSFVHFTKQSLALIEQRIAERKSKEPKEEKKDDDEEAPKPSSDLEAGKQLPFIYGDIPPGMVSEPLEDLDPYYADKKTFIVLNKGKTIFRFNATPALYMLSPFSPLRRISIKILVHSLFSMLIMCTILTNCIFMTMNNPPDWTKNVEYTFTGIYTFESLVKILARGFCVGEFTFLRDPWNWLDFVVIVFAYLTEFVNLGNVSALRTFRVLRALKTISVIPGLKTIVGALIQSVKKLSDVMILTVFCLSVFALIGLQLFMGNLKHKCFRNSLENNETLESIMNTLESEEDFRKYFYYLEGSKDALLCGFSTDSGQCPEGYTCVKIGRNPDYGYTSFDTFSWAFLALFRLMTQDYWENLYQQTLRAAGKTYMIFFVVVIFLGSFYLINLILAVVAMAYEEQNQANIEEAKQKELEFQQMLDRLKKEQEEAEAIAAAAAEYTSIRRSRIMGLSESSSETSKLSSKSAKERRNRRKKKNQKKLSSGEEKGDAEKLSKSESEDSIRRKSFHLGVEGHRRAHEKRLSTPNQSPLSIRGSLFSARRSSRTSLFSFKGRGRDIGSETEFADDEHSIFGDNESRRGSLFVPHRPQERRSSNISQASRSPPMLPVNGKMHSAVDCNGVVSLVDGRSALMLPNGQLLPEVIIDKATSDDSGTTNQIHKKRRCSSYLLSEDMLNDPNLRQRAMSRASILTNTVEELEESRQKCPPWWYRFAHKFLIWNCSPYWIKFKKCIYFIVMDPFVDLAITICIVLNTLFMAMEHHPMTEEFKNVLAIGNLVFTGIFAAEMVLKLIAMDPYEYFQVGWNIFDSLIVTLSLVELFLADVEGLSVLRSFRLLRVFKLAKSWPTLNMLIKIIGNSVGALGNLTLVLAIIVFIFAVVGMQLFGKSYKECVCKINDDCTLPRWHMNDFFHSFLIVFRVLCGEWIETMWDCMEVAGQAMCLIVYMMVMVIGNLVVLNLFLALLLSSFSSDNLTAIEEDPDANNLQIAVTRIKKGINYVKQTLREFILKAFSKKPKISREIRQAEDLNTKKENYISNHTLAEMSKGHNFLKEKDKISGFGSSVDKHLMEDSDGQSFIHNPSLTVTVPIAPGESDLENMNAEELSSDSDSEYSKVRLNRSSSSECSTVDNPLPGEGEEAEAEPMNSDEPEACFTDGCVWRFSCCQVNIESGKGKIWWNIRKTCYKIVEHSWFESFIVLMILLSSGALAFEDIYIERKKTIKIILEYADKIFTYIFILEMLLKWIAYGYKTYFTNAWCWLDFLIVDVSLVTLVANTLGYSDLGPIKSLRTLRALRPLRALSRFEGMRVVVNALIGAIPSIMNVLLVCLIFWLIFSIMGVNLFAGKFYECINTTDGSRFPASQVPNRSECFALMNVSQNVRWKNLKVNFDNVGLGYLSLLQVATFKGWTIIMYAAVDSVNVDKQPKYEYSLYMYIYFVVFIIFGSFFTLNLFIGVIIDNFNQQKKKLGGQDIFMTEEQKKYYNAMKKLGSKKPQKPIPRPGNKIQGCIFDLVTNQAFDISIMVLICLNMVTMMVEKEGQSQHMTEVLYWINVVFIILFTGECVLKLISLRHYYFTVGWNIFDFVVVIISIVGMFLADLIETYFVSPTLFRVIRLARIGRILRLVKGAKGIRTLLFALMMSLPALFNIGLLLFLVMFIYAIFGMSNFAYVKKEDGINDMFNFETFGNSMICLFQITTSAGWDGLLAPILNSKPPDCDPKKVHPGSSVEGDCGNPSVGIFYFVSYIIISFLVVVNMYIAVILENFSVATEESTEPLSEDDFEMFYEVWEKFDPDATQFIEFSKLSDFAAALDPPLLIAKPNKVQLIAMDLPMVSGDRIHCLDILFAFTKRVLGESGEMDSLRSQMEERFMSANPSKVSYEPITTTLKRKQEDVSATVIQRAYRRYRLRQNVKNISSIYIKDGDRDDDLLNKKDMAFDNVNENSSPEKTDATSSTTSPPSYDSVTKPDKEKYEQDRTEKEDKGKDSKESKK
T1 sequence (Q07699 whole entry partner, looked up): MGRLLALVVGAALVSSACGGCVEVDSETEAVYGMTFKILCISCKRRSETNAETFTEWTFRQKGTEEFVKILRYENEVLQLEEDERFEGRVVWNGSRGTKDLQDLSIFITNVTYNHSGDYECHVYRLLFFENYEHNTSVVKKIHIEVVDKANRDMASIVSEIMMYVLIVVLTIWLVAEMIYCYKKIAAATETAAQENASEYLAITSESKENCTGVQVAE

O=C(NS(=O)(=O)N1CCC1)c1cc(C2CC2)c(OCC23CC4CC(C2)C(F)(F)C(C4)C3)cc1F
IC50 [1]: 4 nM | IC50 [2]: 6 nM

N#CC1(COc2cc(F)c(C(=O)NS(=O)(=O)N3CCC3)cc2C2CC2)C2CC3CC(C2)CC1C3 (stereo not drawn)
IC50 [1]: 9 nM | IC50 [2]: 5 nM

CC1(C)CCCC(COc2cc(F)c(C(=O)NS(=O)(=O)N3CCC3)cc2C2CC2)C1 (stereo not drawn)
IC50 [1]: 4 nM | IC50 [2]: 8 nM

O=C(NS(=O)(=O)N1CCC1)c1cc(C2CC2)c(OCC23CC4CC(CC(CF)(C4)C2)C3)cc1F
IC50 [1]: 4 nM | IC50 [2]: 8 nM

COCCS(=O)(=O)NC(=O)c1cc(C2CC2)c(OCC23CCCCC2C3)cc1F (stereo not drawn)
IC50 [1]: 19 nM | IC50 [2]: 10 nM

O=C(NS(=O)(=O)N1CCC(O)CC1)c1cc(C2CC2)c(OCC23CC4CC(CC(C4)C2)C3)cc1F
IC50 [1]: 26 nM | IC50 [2]: 23 nM

O=C(NS(=O)(=O)N1CCC1)c1cc(C2CC2)c(OCC2CCC3(CC2)CC3)cc1F
IC50 [1]: 4 nM | IC50 [2]: 6 nM

CS(=O)(=O)NC(=O)c1ccc(OC[C@H]2CC[C@H](C(F)(F)F)CC2)cc1F
IC50 [1]: 1500 nM | IC50 [2]: 1000 nM

[2H]C1([2H])C([2H])([2H])C([2H])([2H])C([2H])(COc2cc(F)c(C(=O)NS(=O)(=O)N3CCC3)cc2Cl)C([2H])([2H])C1([2H])[2H]
IC50 [1]: 160 nM | IC50 [2]: 310 nM

[2H]C1([2H])C([2H])([2H])C([2H])([2H])C([2H])(COc2cc(F)c(C(=O)NS(=O)(=O)N3CCC3)cc2C2CC2)C([2H])([2H])C1([2H])[2H]
IC50 [1]: 11 nM | IC50 [2]: 100 nM

O=C(NS(=O)(=O)C1CC1)c1cc(C2CC2)c(O[C@@H]2C[C@@H]3CC[C@H]2C3)cc1F
IC50 [1]: 14 nM | IC50 [2]: 41 nM

O=C(NS(=O)(=O)N1CCC1)c1cc(C2CC2)c(O[C@@H]2C[C@@H]3CC[C@H]2C3)cc1F
IC50 [1]: 31 nM | IC50 [2]: 80 nM

CS(=O)(=O)NC(=O)c1cc(C2CC2)c(O[C@@H]2C[C@@H]3CC[C@H]2C3)cc1F
IC50 [1]: 45 nM | IC50 [2]: 230 nM

O=C(NS(=O)(=O)N1CCC1)c1cc(C2CC2)c(OCCC2CCC(F)(F)CC2)cc1F
IC50 [1]: 230 nM | IC50 [2]: 80 nM

O=C(NS(=O)(=O)N1CCC1)c1cc(C2CC2)c(O[C@H]2C[C@@H]3CC[C@H]2C3)cc1F
IC50 [1]: 70 nM | IC50 [2]: 32 nM

CS(=O)(=O)NC(=O)c1cc(C2CC2)c(O[C@H]2C[C@@H]3CC[C@H]2C3)cc1F
IC50 [1]: 74 nM | IC50 [2]: 24 nM

O=C(NS(=O)(=O)N1CCC1)c1cc(F)c(OCC23CC4CC(CC(C4)C2)C3)c(Cl)c1F
IC50 [1]: 1300 nM | IC50 [2]: 5200 nM

O=C(NS(=O)(=O)N1CCC1)c1cc(Cl)c(OCC2CCC3(CCC3)CC2)cc1F
IC50 [1]: 25 nM | IC50 [2]: 77 nM

CO[C@H]1CCN(S(=O)(=O)NC(=O)c2cc(C3CC3)c(OCC34CC5CC(CC(C5)C3)C4)cc2F)C1
IC50 [1]: 29 nM | IC50 [2]: 300 nM

O=C(NS(=O)(=O)N1CCC1)c1cc(Cl)c(OCC23CC4CC(CC(C4)C2)C3)c(F)c1F
IC50 [1]: 370 nM | IC50 [2]: 2300 nM

CS(=O)(=O)NC(=O)c1cc(Cl)c(OCC23CC4CC(CC(C4)C2)C3)c(F)c1F
IC50 [1]: 190 nM | IC50 [2]: 1500 nM

O=C(NS(=O)(=O)N1CCC1)c1cc(C2CC2)c(O[C@H]2C3CC4CC2C[C@](F)(C4)C3)cc1F
IC50 [1]: 20 nM | IC50 [2]: 100 nM

O=C(NS(=O)(=O)C1CC1)c1cc(C2CC2)c(O[C@H]2C3CC4CC2C[C@](F)(C4)C3)cc1F
IC50 [1]: 11 nM | IC50 [2]: 43 nM

4-(adamantan-1-ylmethoxy)-3-chloro-N-(methylsulfonyl)benzamide [Example 12]
IC50 [2]: 6.9 nM

CN(C)S(=O)(=O)NC(=O)c1cc(Cl)c(OCC23CC4CC(CC(F)(C4)C2)C3)cc1F [Example 89, 5-chloro-N-(dimethylsulfamoyl)-2-fluoro-4-[(3-fluoro-1-adamantyl)methoxy]benzamide]
IC50 [1]: 234 nM

CN(C)S(=O)(=O)NC(=O)c1cc(Cl)c(OCC2CCCCCC2)cc1F [Example 100]
IC50 [1]: 299 nM

CS(=O)(=O)NC(=O)c1cc(Cl)c(OC2CCC(C(F)(F)F)CC2)cc1F (stereo not drawn) [Example 128]
IC50 [1]: 291 nM

CS(=O)(=O)NC(=O)c1cc(Cl)c(OC2CCC3(CCCC3)CC2)cc1F [Example 133]
IC50 [1]: 125 nM

CN(C)S(=O)(=O)NC(=O)c1cc(Cl)c(OC2CCC(C(F)(F)F)CC2)cc1F (stereo not drawn) [Example 138]
IC50 [1]: 1120 nM

CN(C)S(=O)(=O)NC(=O)c1cc(Cl)c(OCCC2CCC2)cc1F [Example 140]
IC50 [1]: 885 nM

CS(=O)(=O)NC(=O)c1cc(Cl)c(OCC2(F)C3CC4CC(C3)CC2C4)cc1F (stereo not drawn) [Example 176]
IC50 [1]: 50 nM

CNS(=O)(=O)NC(=O)c1cnc(OCC23CC4CC(CC(C4)C2)C3)c(C2CC2)c1 [Example 178]
IC50 [1]: 250 nM

CS(=O)(=O)NC(=O)c1ccc(C2C3CC4CC(C3)CC2C4)c(Cl)c1 (stereo not drawn) [Example 180]
IC50 [1]: 1200 nM

O=C(NS(=O)(=O)N1CC(F)C1)c1cc(C2CC2)c(OCC2CCCCC2)cc1F [Example 210]
IC50 [1]: 8 nM

O=C(NS(=O)(=O)C1CCC1)c1cc(C2CC2)c(OCC23CC4CC(CC(C4)C2)C3)cc1F [Example 211]
IC50 [1]: 2 nM

CC(O)CS(=O)(=O)NC(=O)c1ccc(OCC23CC4CC(CC(C4)C2)C3)cc1F (stereo not drawn) [Example 215]
IC50 [1]: 990 nM

O=C(NS(=O)(=O)N1CCC1)c1cc(I)c(OCC23CC4CC(CC(C4)C2)C3)cc1F [Example 222]
IC50 [1]: 9 nM

O=C(NS(=O)(=O)N1CC(F)C1)c1cc(C2CC2)c(OCC2CCC(F)(F)CC2)cc1F [Example 226]
IC50 [1]: 30 nM

O=C(NS(=O)(=O)N1CC2(COC2)C1)c1cc(C2CC2)c(OCC23CC4CC(CC(C4)C2)C3)cc1F [Example 237]
IC50 [1]: 67 nM

O=C(NS(=O)(=O)C1CC1)c1cc(C2CC2)c(OCC2CCCC2)cc1F [Example 242]
IC50 [1]: 20 nM

O=C(NS(=O)(=O)C1CC1)c1cc(Cl)c(OCC2CC3CC3C2)cc1F (stereo not drawn) [Example 266]
IC50 [1]: 49 nM

O=C(NS(=O)(=O)C1CC1)c1cc(Cl)c(OCC2CC3C(C2)C3(F)F)cc1F (stereo not drawn) [Example 322]
IC50 [1]: 81 nM

C/C=C/c1cc(C(=O)NS(=O)(=O)N2CCC2)c(F)cc1OCC12CC3CC(CC(C3)C1)C2 [Example 399]
IC50 [1]: 6 nM

O=C(NS(=O)(=O)C1CC1)c1cc(C2CC2)c(OCC23CCCCC2C3(F)F)cc1F (stereo not drawn) [Example 433, 5-cyclopropyl-N-cyclopropylsulfonyl-4-[(7,7-difluoronorcaran-1-yl)methoxy]-2-fluoro-benzamide]
IC50 [1]: 4 nM

O=C(NS(=O)(=O)N1CCC1)c1cc(C2CC2)c(OCC23CCCCC2C3(F)F)cc1F (stereo not drawn) [Example 434]
IC50 [1]: 11 nM

O=C(NS(=O)(=O)C1CC1)c1cc(C2CC2)c(OC[C@H]2CC[C@H](C(F)(F)F)CC2)cc1F [Example 435, 5-cyclopropyl-N-(cyclopropylsulfonyl)-2-fluoro-4-(((1r,4r)-4-(trifluoromethyl)cyclohexyl)methoxy)benzamide]
IC50 [1]: 3 nM

O=C(NS(=O)(=O)N1CCC1)c1cc(C2CC2)c(OC[C@H]2CC[C@H](C(F)(F)F)CC2)cc1F [Example 436, N-(azetidin-1-ylsulfonyl)-5-cyclopropyl-2-fluoro-4-(((1r,4r)-4-(trifluoromethyl)cyclohexyl)methoxy)benzamide]
IC50 [1]: 9 nM

CS(=O)(=O)NC(=O)c1cc(C2CC2)c(OC2CN(C(c3ccccc3)c3ccccc3)C2)cc1F [Example 439, 4-(1-benzhydrylazetidin-3-yloxy)-5-cyclopropyl-2-fluoro-N-(methylsulfonyl)benzamide]
IC50 [1]: 28 nM

CCS(=O)(=O)NC(=O)c1cc(C2CC2)c(OCC2CN(C(c3ccccc3)c3ccccc3)C2)cc1F [Example 441, 4-((1-benzhydrylazetidin-3-yl)methoxy)-5-cyclopropyl-N-(ethylsulfonyl)-2-fluorobenzamide]
IC50 [1]: 10 nM

CC1(COc2cc(F)c(C(=O)NS(=O)(=O)N3CC(F)C3)cc2C2CC2)CCCCC1 [Example 447, 5-cyclopropyl-2-fluoro-N-((3-fluoroazetidin-1-yl)sulfonyl)-4-((1-methylcyclohexyl)methoxy)benzamide]
IC50 [1]: 4.2 nM

O=C(NS(=O)(=O)N1CCC1)c1cc(C2CC2)c(OCC2CC3CC3C2)cc1F (stereo not drawn) [Example 454]
IC50 [1]: 18 nM

trans-5-cyclopropyl-N-(cyclopropylsulfonyl)-2-fluoro-4-((4-(trifluoromethyl)-cyclohexyl)methoxy)benzamide [Example 259]
IC50 [1]: 20 nM

Reference: patent publication US8952169B2 (Genentech, Inc., priority 2012, dated 2015)
